Laboratory results taken from patent publication US20160158200A1, “Combinations of Hepatitis C Virus Inhibitors” (priority 2013, published 2016).

System: HCV genotype-1a variant with glutamine 30 changed to glutamate in the NS5A protein
Format: cell-based
Details: test compound titrated with BMS-790052 fixed at 200 nM; genotype 1a Q30E replicon
Outline: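 Synergy was assessed by combining several fixed amounts of an NS5A-targeting compound with a titration of the second compound of interest.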

Row | Structure (SMILES) | Fold-Synergistic 1a (Q30E) [fold]
1 | CC(C)(C)[C@H](NC(=O)C(=O)N1CCOCC1)c1nc(-c2ccc(-c3ccc(-c4c[nH]c([C@@H](NC(=O)C(=O)N5CCOCC5)C(C)(C)C)n4)cc3)cc2)c[nH]1 [Compound W-25] | >100
2 | CC(C)(C)CN[C@H](c1nc(-c2ccc(-c3ccc(-c4c[nH]c([C@@H](NCC(C)(C)C)C(C)(C)C)n4)cc3)cc2)c[nH]1)C(C)(C)C [Compound L-1] | >100
3 | CC(C)(C)C(=O)C(=O)N[C@H](c1nc(-c2ccc(-c3ccc(-c4c[nH]c([C@@H](NC(=O)C(=O)C(C)(C)C)C(C)(C)C)n4)cc3)cc2)c[nH]1)C(C)(C)C [Compound W-238] | >100
4 | CC(C)[C@H](NC(=O)c1ccno1)c1ncc(-c2ccc(-c3ccc(-c4cnc([C@@H](NC(=O)c5ccno5)C(C)C)[nH]4)cc3)cc2)[nH]1 [Compound S-100] | >100
5 | CC(C)(C)C(NC(=O)C1(O)CCCOC1)c1nc(-c2ccc(-c3ccc(-c4c[nH]c(C(NC(=O)C5(O)CCCOC5)C(C)(C)C)n4)cc3)cc2)c[nH]1 (mixture of isomers) [Compound Y-102] | >100
6 | COc1ncccc1C(=O)N[C@H](c1ncc(-c2ccc(-c3ccc(-c4cnc([C@@H](NC(=O)c5cccnc5OC)C(C)C)[nH]4)cc3)cc2)[nH]1)C(C)C [Compound S-52] | >100
7 | CC(C)[C@H](NC(=O)c1ccccc1F)c1nc(-c2ccc(-c3ccc(-c4c[nH]c([C@@H](NC(=O)c5ccccc5F)C(C)C)n4)c(F)c3)cc2)c[nH]1.O=C(O)C(F)(F)F [Compound N-92] | >100
8 | CC(C)[C@H](NC(=O)c1ccccc1)c1ncc(-c2ccc(-c3ccc(-c4cnc([C@@H]5CCCN5C(=O)c5ccccc5)[nH]4)cc3)cc2)[nH]1 [Compound Y-15] | >10
9 | CC(C)[C@H](NC(=O)C(C)(C)C(O)C1CC(F)(F)C1)c1nc(-c2ccc(-c3ccc(-c4c[nH]c([C@@H](NC(=O)C(C)(C)C(O)C5CC(F)(F)C5)C(C)C)n4)cc3)cc2)c[nH]1 (single isomer, unassigned) [Compound N-145A] | >100
10 | CC(C)[C@H](NC(=O)C1CC(=O)C1)c1nc(-c2ccc(-c3ccc(-c4c[nH]c([C@@H](NC(=O)C5CC(=O)C5)C(C)C)n4)cc3)cc2)c[nH]1 [Compound W-172] | >10
11 | CC(C)(C)C(=O)NC(c1nc(-c2ccc(-c3ccc(-c4c[nH]c(C(NC(=O)C(C)(C)C)C5(C(F)(F)F)CC5)n4)cc3)cc2)c[nH]1)C1(C(F)(F)F)CC1 (single isomer, unassigned) [Compound N-107B] | >10
12 | CC(C)N(C(=O)C(=O)N[C@H](c1nc(-c2ccc(-c3ccc(-c4c[nH]c([C@@H](NC(=O)C(=O)N(C(C)C)C5CC5)C(C)(C)C)n4)cc3)cc2)c[nH]1)C(C)(C)C)C1CC1 [Compound W-49] | >100
13 | O=C(N1CCC(F)(F)CC1)N1CCC[C@H]1c1ncc(-c2ccc(-c3ccc(-c4cnc([C@@H]5CCCN5C(=O)N5CCC(F)(F)CC5)[nH]4)cc3)cc2)[nH]1 [Compound P-131] | >100
14 | CC(C)(C)OC(=O)CC(C(=O)NC(c1nc(-c2ccc(-c3ccc(-c4c[nH]c(C(NC(=O)C(CC(=O)OC(C)(C)C)C5CCCC5)C(C)(C)C)n4)cc3)cc2)c[nH]1)C(C)(C)C)C1CCCC1 (centres unmarked) [Compound S-272] | >100
15 | CC(C)[C@H](NC(=O)CCC(C)(C)C)c1ncc(-c2ccc(-c3ccc(-c4cnc([C@@H](NC(=O)CCC(C)(C)C)C(C)C)[nH]4)cc3)cc2)[nH]1 [Compound P-81] | >100
16 | CC1(C(=O)NC(c2nc(-c3ccc(-c4ccc(-c5c[nH]c(C(NC(=O)C6(C)CCCCC6=O)C(C)(C)C)n5)cc4)cc3)c[nH]2)C(C)(C)C)CCCCC1=O (mixture of isomers) [Compound Y-98] | >100
17 | CC(C)N(C(=O)C(=O)NC(c1nc(-c2ccc(-c3ccc(-c4c[nH]c(C(NC(=O)C(=O)N(C(C)C)C5CC5)C5CC5)n4)cc3)cc2)c[nH]1)C1CC1)C1CC1 [Compound L-36] | >100
18 | CCC(C)(C)C(=O)N[C@H](c1ncc(-c2ccc(-c3ccc(-c4cnc([C@@H](NC(=O)C(C)(C)CC)C(C)C)[nH]4)cc3)cc2)[nH]1)C(C)C [Compound P-68] | >100
19 | COCCC(=O)N[C@H](c1ncc(-c2ccc(-c3ccc(-c4cnc([C@@H](NC(=O)CCOC)C(C)C)[nH]4)cc3)cc2)[nH]1)C(C)C [Compound S-51] | >10
20 | CC(C)[C@H](NC(=O)C(C)(C)C)c1ncc(-c2ccc3cc4cc(-c5cnc([C@@H](NC(=O)C(C)(C)C)C(C)C)[nH]5)ccc4cc3c2)[nH]1.O=C(O)C(F)(F)F [Compound B30] | >100
21 | CC(C)(C)[C@H](N)c1nc(-c2ccc(-c3ccc(-c4c[nH]c([C@@H](Nc5ncc(Br)cn5)C(C)(C)C)n4)cc3)cc2)c[nH]1 [Compound W-16B] | <10

Row | Structure (SMILES) | Fold-Synergistic 1a (Q30E) [fold]
22 | CC(C)(C)OC(=O)N1CC2(CC(C(=O)NC(c3nc(-c4ccc(-c5ccc(-c6c[nH]c(C(NC(=O)C7CC8(C7)CN(C(=O)OC(C)(C)C)C8)C(C)(C)C)n6)cc5)cc4)c[nH]3)C(C)(C)C)C2)C1 [Compound L-57] | >100
23 | CCN(CC(F)(F)F)C(=O)C(=O)NC(c1nc(-c2ccc(-c3ccc(-c4c[nH]c(C(NC(=O)C(=O)N(CC)CC(F)(F)F)C(C)C)n4)cc3)cc2)c[nH]1)C(C)C (centres unmarked) [Compound W-56] | >100
24 | CC(C)(C)C(NC(=O)C1COC(=O)N1)c1nc(-c2ccc(-c3ccc(-c4c[nH]c(C(NC(=O)C5COC(=O)N5)C(C)(C)C)n4)cc3)cc2)c[nH]1.O=C(O)C(F)(F)F.O=C(O)C(F)(F)F [Compound L-9] | >10
25 | CC(C)(C)C(NC(=O)C1(C)CC1(F)F)c1nc(-c2ccc(-c3ccc(-c4c[nH]c(C(NC(=O)C5(C)CC5(F)F)C(C)(C)C)n4)cc3)cc2)c[nH]1 (single isomer, unassigned) [Compound L-58b] | >100
26 | CC(C)CC(=O)N1CCC[C@H]1c1ncc(-c2ccc(-c3ccc(-c4cnc([C@@H](NC(=O)C(C)(C)C)C(C)C)[nH]4)cc3)cc2)[nH]1 [Compound Y-14] | >100
27 | CC(O)C1(C(=O)N[C@H](c2nc(-c3ccc(-c4ccc(-c5c[nH]c([C@@H](NC(=O)C6(C(C)O)CCCCC6)C(C)(C)C)n5)cc4)cc3)c[nH]2)C(C)(C)C)CCCCC1 (single isomer, unassigned) [Compound N-152B] | >100
28 | CC(C)(C(=O)N[C@H](c1nc(-c2ccc(-c3ccc(-c4c[nH]c([C@@H](NC(=O)C(C)(C)C5CCC(F)(F)CC5)C(C)(C)C)n4)cc3)cc2)c[nH]1)C(C)(C)C)C1CCC(F)(F)CC1 [Compound P-150] | >100
29 | CC(C)[C@H](NC(=O)CC(c1ccccc1)c1ccccc1)c1ncc(-c2ccc(-c3ccc(-c4cnc([C@@H](NC(=O)CC(c5ccccc5)c5ccccc5)C(C)C)[nH]4)cc3)cc2)[nH]1 [Compound S-30] | >100
30 | CC1(C)CCN(C(=O)C2CCC(F)(F)CC2)C1c1nc(-c2ccc(-c3ccc(-c4c[nH]c(C5N(C(=O)C6CCC(F)(F)CC6)CCC5(C)C)n4)cc3)cc2)c[nH]1 (centres unmarked) [Compound W-217] | >10
31 | CC(C)[C@H](NC(=O)C(C)(C)C(F)(F)F)c1ncc(-c2ccc(-c3ccc(-c4cnc([C@@H](NC(=O)C(C)(C)C(F)(F)F)C(C)C)[nH]4)cc3)cc2)[nH]1 [Compound P-87] | >100
32 | CC(C)[C@H](NC(=O)C(=O)C1(C)CCC1)c1ncc(-c2ccc(-c3ccc(-c4cnc([C@@H](NC(=O)C(=O)C5(C)CCC5)C(C)C)[nH]4)cc3)cc2)[nH]1 [Compound P-115] | >100
33 | CC(C)(C)[C@H](NC(=O)C1CCC(F)(F)CC1)c1ncc(CCc2ccc3cc(-c4cnc([C@@H](NC(=O)C5CCC(F)(F)CC5)C(C)(C)C)[nH]4)ccc3c2)[nH]1 [Compound B6] | >100
34 | O=C(OCc1ccccc1)N1CCC[C@H]1c1ncc(-c2ccc(-c3ccc(-c4cnc([C@@H]5CCCN5C(=O)OCc5ccccc5)[nH]4)cc3)cc2)[nH]1 [Compound S-216] | >10
35 | COc1ccccc1C(O)CC(=O)N[C@H](c1nc(-c2ccc(-c3ccc(-c4c[nH]c([C@@H](NC(=O)C5(C(O)c6ccccc6OC)CC5)C(C)(C)C)n4)cc3)cc2)c[nH]1)C(C)(C)C (single isomer, unassigned) [Compound N-135B] | >100
36 | CC(C)(C)[C@H](NC(=O)C1(C2(O)CCC(F)(F)CC2)CC1)c1nc(-c2ccc(-c3ccc(-c4c[nH]c([C@@H](NC(=O)C5(C6(O)CCC(F)(F)CC6)CC5)C(C)(C)C)n4)cc3)cc2)c[nH]1 [Compound P-146] | >100
37 | CC1CN(C(=O)C(=O)N[C@H](c2nc(-c3ccc(-c4ccc(-c5c[nH]c([C@@H](NC(=O)C(=O)N6CC(C)OC(C)C6)C(C)(C)C)n5)cc4)cc3)c[nH]2)C(C)(C)C)CC(C)O1 (single isomer, unassigned) [Compound W-40A] | >100
38 | CC(C)[C@H](NC(=O)[C@@H](C)c1ccccc1)c1ncc(-c2ccc(-c3ccc(-c4cnc([C@@H](NC(=O)[C@@H](C)c5ccccc5)C(C)C)[nH]4)cc3)cc2)[nH]1 [Compound P-62] | >100
39 | COC(=O)N[C@H]1CCN([C@H](c2ncc(-c3ccc(-c4ccc(-c5cnc([C@H](C(C)C)N6CC[C@H](NC(=O)OC)C6=O)[nH]5)cc4)cc3)[nH]2)C(C)C)C1=O.O=C(O)C(F)(F)F.O=C(O)C(F)(F)F [Compound P-53] | <10
40 | CC(C)[C@H](NC(=O)C1CCOCC1)c1ncc(-c2ccc(-c3ccc(-c4cnc([C@@H](NC(=O)C5CCOCC5)C(C)C)[nH]4)cc3)cc2)[nH]1 [Compound P-59] | >100
41 | CC(C)(C)[C@H](NC(=O)C(=O)N1CCC(F)CC1)c1nc(-c2ccc(-c3ccc(-c4c[nH]c([C@@H](NC(=O)C(=O)N5CCC(F)CC5)C(C)(C)C)n4)cc3)cc2)c[nH]1 [Compound W-26] | >100
